The values that follow come from patent publication US10548828B2, “Use of 3,6-anhydro-L-galactose for preventing dental caries” (Korea University Research and Business Foundation, priority 2015, dated 2020).

The test system of assay [1] is Streptococcus mutans. Put plainly: Growth and acid production under mixed carbon source condition, 5 mL culture, absorbance and HPLC. Type of assay: cell-based, Streptococcus mutans ATCC 25175. Here is the method:
Strains used in the present experiment are Streptococcus mutans ATCC 25175, S. oralis, and S. sanguinis. Representatively, Streptococcus mutans ATCC 25175 was pre-cultured in a brain-heart infusion (BHI) medium for 12 hours, and was washed twice with a 2 mM potassium phosphate buffer, and then was subjected to main culture in a minimal medium prepared with reference to the previously reported document (Fujiwara et al (1978) Arch Oral Biol. 23, 601-602) at 37° C. and 180 rpm. The composition of the minimal medium includes, in 5 mL of a 50 mM Tris-HCl buffer (pH 7.4), 10 mg of L-glutamic acid, 1 mg of cysteine hydrochloride, 4.5 mg of L-leucine, 5 mg of ammonium chloride, 17.5 mg of potassium hydrogen phosphate, 7.5 mg of potassium dihydrogen phosphate, 21 mg of a carbonate, 6 mg of magnesium sulfate heptahydrate, 0.1 mg of manganese chloride tetrahydrate, 3 mg of sodium pyruvate, 5 μg of riboflavin, 2.5 μg of thiamine hydrochloride, 0.5 μg of biotin, 5 μg of nicotinic acid, 0.5 μg of p-aminobenzoic acid, 2.5 μg of calcium pantothenate, and 5 μg of pyridoxine hydrochloride. To verify an effect of 3,6-anhydro-L-galactose or xylitol on the growth of Streptococcus mutans and acid production, Streptococcus mutans bacteria were cultured, using the method of Example 5, in 5 mL of a liquid minimal medium containing 10 g/L of glucose and 0 g/L, 5 g/L or 10 g/L of 3,6-anhydro-L-galactose or 20 g/L or 40 g/L of xylitol for 35 h, and cell growth was measured using absorbance every 5 hours and concentrations of an extracellular substrate and acid production were measured by HPLC. A glucose only-added condition was set as a negative control, and a glucose- and xylitol-added condition was set as a positive control. A column used for analysis was Aminex HPX-87H, and 0.01 N of sulfuric acid as a mobile phase was flowed at a rate of 0.5 mL/min and 65° C.

Assay [2] concerns Streptococcus mutans. Put plainly: Growth inhibition under mixed carbon source condition (10 g/L glucose), 96-well plate. In kind it is cell-based, Streptococcus mutans ATCC 25175. Here is the method:
(§1) Strains used in the present experiment are Streptococcus mutans ATCC 25175, S. oralis, and S. sanguinis. Representatively, Streptococcus mutans ATCC 25175 was pre-cultured in a brain-heart infusion (BHI) medium for 12 hours, and was washed twice with a 2 mM potassium phosphate buffer, and then was subjected to main culture in a minimal medium prepared with reference to the previously reported document (Fujiwara et al (1978) Arch Oral Biol. 23, 601-602) at 37° C. and 180 rpm. […] Small amounts of Streptococcus mutans, S. oralis, and S. sanguinis were cultured, using the method of Example 5, in 200 μl of a liquid minimal medium containing 10 g/L of glucose and 3,6-anhydro-L-galactose or xylitol according to concentration in a 96-well plate, and growth inhibitory effects thereof were observed by measuring absorbance at a wavelength of 600 nm according to time. […]

The test system of another assay is S. sanguinis. The description is as above. Type of assay: cell-based. The note with it: 60 g/L added to 10 g/L glucose. Here is the method: as §1
The test system of assay [3] is Streptococcus mutans. Put plainly: Growth of Streptococcus mutans in liquid minimal medium, single carbon source (absorbance 600 nm). In kind it is cell-based, Streptococcus mutans ATCC 25175. The note with it: 10 g/L single carbon source, 20 h after entering a stationary phase. The procedure: Strains used in the present experiment are Streptococcus mutans ATCC 25175, S. oralis, and S. sanguinis. Representatively, Streptococcus mutans ATCC 25175 was pre-cultured in a brain-heart infusion (BHI) medium for 12 hours, and was washed twice with a 2 mM potassium phosphate buffer, and then was subjected to main culture in a minimal medium prepared with reference to the previously reported document (Fujiwara et al (1978) Arch Oral Biol. 23, 601-602) at 37° C. and 180 rpm. The composition of the minimal medium includes, in 5 mL of a 50 mM Tris-HCl buffer (pH 7.4), 10 mg of L-glutamic acid, 1 mg of cysteine hydrochloride, 4.5 mg of L-leucine, 5 mg of ammonium chloride, 17.5 mg of potassium hydrogen phosphate, 7.5 mg of potassium dihydrogen phosphate, 21 mg of a carbonate, 6 mg of magnesium sulfate heptahydrate, 0.1 mg of manganese chloride tetrahydrate, 3 mg of sodium pyruvate, 5 μg of riboflavin, 2.5 μg of thiamine hydrochloride, 0.5 μg of biotin, 5 μg of nicotinic acid, 0.5 μg of p-aminobenzoic acid, 2.5 μg of calcium pantothenate, and 5 μg of pyridoxine hydrochloride. […] The bacteria were main-cultured using the method of Example 5 for 35 h, and a degree of the cell growth was measured by measuring the absorbance of a culture at a wavelength of 600 nm every 5 h.

In assay [4] the test system is Streptococcus mutans. Kind of assay: Colony formation of Streptococcus mutans on solid minimal medium, single carbon source. In kind it is cell-based, Streptococcus mutans ATCC 25175. The following applies: 10 g/L as single carbon source, 30 h. The procedure:
Strains used in the present experiment are Streptococcus mutans ATCC 25175, S. oralis, and S. sanguinis. Representatively, Streptococcus mutans ATCC 25175 was pre-cultured in a brain-heart infusion (BHI) medium for 12 hours, and was washed twice with a 2 mM potassium phosphate buffer, and then was subjected to main culture in a minimal medium prepared with reference to the previously reported document (Fujiwara et al (1978) Arch Oral Biol. 23, 601-602) at 37° C. and 180 rpm. The composition of the minimal medium includes, in 5 mL of a 50 mM Tris-HCl buffer (pH 7.4), 10 mg of L-glutamic acid, 1 mg of cysteine hydrochloride, 4.5 mg of L-leucine, 5 mg of ammonium chloride, 17.5 mg of potassium hydrogen phosphate, 7.5 mg of potassium dihydrogen phosphate, 21 mg of a carbonate, 6 mg of magnesium sulfate heptahydrate, 0.1 mg of manganese chloride tetrahydrate, 3 mg of sodium pyruvate, 5 μg of riboflavin, 2.5 μg of thiamine hydrochloride, 0.5 μg of biotin, 5 μg of nicotinic acid, 0.5 μg of p-aminobenzoic acid, 2.5 μg of calcium pantothenate, and 5 μg of pyridoxine hydrochloride. To verify an effect of inhibiting the growth of Streptococcus mutans under a single carbon source condition, Streptococcus mutans was cultured in a solid minimal medium and a liquid minimal medium that contained 10 g/L of each of 3,6-anhydro-L-galactose, glucose, and xylitol. […]

Assay [5] deals with S. mutans. Put plainly: Inhibitory effects under sucrose, fructose or maltose conditions, 96-well plate. Type of assay: cell-based, Streptococcus mutans. The following applies: for non-growth rate: 40 g/L added. The procedure: Strains used in the present experiment are Streptococcus mutans ATCC 25175, S. oralis, and S. sanguinis. Representatively, Streptococcus mutans ATCC 25175 was pre-cultured in a brain-heart infusion (BHI) medium for 12 hours, and was washed twice with a 2 mM potassium phosphate buffer, and then was subjected to main culture in a minimal medium prepared with reference to the previously reported document (Fujiwara et al (1978) Arch Oral Biol. 23, 601-602) at 37° C. and 180 rpm. The composition of the minimal medium includes, in 5 mL of a 50 mM Tris-HCl buffer (pH 7.4), 10 mg of L-glutamic acid, 1 mg of cysteine hydrochloride, 4.5 mg of L-leucine, 5 mg of ammonium chloride, 17.5 mg of potassium hydrogen phosphate, 7.5 mg of potassium dihydrogen phosphate, 21 mg of a carbonate, 6 mg of magnesium sulfate heptahydrate, 0.1 mg of manganese chloride tetrahydrate, 3 mg of sodium pyruvate, 5 μg of riboflavin, 2.5 μg of thiamine hydrochloride, 0.5 μg of biotin, 5 μg of nicotinic acid, 0.5 μg of p-aminobenzoic acid, 2.5 μg of calcium pantothenate, and 5 μg of pyridoxine hydrochloride. Under conditions of fermentable sugars other than glucose, for example, sucrose, fructose, and maltose, inhibitory effects of AHG and xylitol on S. mutans were investigated. An experiment was carried out in a 96-well plate containing 0 g/L to 10 g/L of AHG or 0 g/L to 40 g/L of xylitol in a specified minimal medium containing 10 g/L of each of sucrose, fructose, and maltose.

The test system of assay [6] is S. mutans. The note with it: background statement; cited from earlier work.

Some results are limits rather than exact numbers.

As for `OC[C@@H](O)[C@H](O)[C@@H](O)CO` [xylitol], in the assay on Streptococcus mutans [1] (20 g/L in 10 g/L glucose), the “concentration of produced acetic acid” value stood at 0.55 g/L, the “concentration of produced lactic acid” value was 3.67 g/L, the “final dry cell weight” value is given as 1.42 g/L and the glucose consumed worked out at 5.28 g/L. Moreover, the non-growth rate in the assay on Streptococcus mutans [1] (20 g/L in 10 g/L glucose) was 0.087 h⁻¹. Besides, in the assay on Streptococcus mutans [1] (40 g/L in 10 g/L glucose), the “concentration of consumed glucose” value is given as 5.42 g/L; the “concentration of produced acetic acid” value amounted to 0.55 g/L; the “concentration of produced lactic acid” value was 3.67 g/L; the “inhibition of growth of Streptococcus mutans and acid production” value was “did not completely inhibit”. Also, in the assay with Streptococcus mutans [1] (40 g/L in 10 g/L glucose, compared with 20 g/L), the lag phase result is “longer”. The “use as a carbon source / fermentation by Streptococcus mutans” value in the assay on Streptococcus mutans [1] (in 10 g/L glucose) is given as “non-fermentation properties”. The “concentration of the added sugar during culture” value in the assay on Streptococcus mutans [1] (in 10 g/L glucose, 35 h culture) is listed as “constantly maintained”. Besides, the “growth of Streptococcus mutans, concentration dependence” value with Streptococcus mutans [2] (0-60 g/L added to 10 g/L glucose) is “inhibited as the treated concentration of xylitol was increased”. Also, the “growth of Streptococcus mutans” value in the assay with Streptococcus mutans [2] (40 g/L added to 10 g/L glucose) is reported as “considerable cell growth was observed”. Further, the “inhibitory effect on S. sanguinis” value in the assay with S. sanguinis is on record as “strong inhibitory effect”. Moreover, the “dry cell weight (DCW) of Streptococcus mutans” value in the assay with Streptococcus mutans [3] was 1.46 g/L. Further, the “formation of colonies compared to the glucose condition” value in the assay on Streptococcus mutans [4] was “inhibited”. Further, the non-growth rate in the assay with S. mutans [5] (10 g/L fructose) came out at 0.085 h⁻¹. This compound also had a non-growth rate in the assay with S. mutans [5] (10 g/L maltose) of 0.045 h⁻¹. In addition, the “cell growth of S. mutans, concentration dependence” value in the assay on S. mutans [5] (10 g/L sucrose, 0-40 g/L added) is reported as “decreased as the concentration of xylitol was increased”. This compound gave a non-growth rate in the assay on S. mutans [5] (10 g/L sucrose) of 0.061 h⁻¹. In the assay with S. mutans [5] (10 g/L sucrose, 40 g/L added (maximum concentration)), the “cell growth of S. mutans” value was “did not completely inhibit”. Also, the “concentration at which the growth of S. mutans can be inhibited” value with S. mutans [6] is recorded as no less than 25 g/L.
